Measurements from ChEMBL document CHEMBL3046294, “Fungicidal properties of the essential oil of Hesperozygis marifolia on Aspergillus flavus link” (2011).
Calls of active or inactive are those of the source. The calls are words filed in the database; no cut-off is given here.

Columns and labels:
[1] = system: Aspergillus flavus; experiment: Antifungal activity against Aspergillus flavus assessed as inhibition of mycelial growth measured after 72 hr at 28 +/- 1 degC; type: functional, organism-based
[2] = system: Frankliniella occidentalis; experiment: Insecticidal activity against Frankliniella occidentalis (western flower thrips) assessed as mortality at 1 ul/45mL; type: functional
[3] = system: Aspergillus flavus; experiment: Antifungal activity against Aspergillus flavus assessed as inhibition of mycelial growth measured after 72 hr at 0.8 mg/mL at 28 +/- 1 degC; type: functional, organism-based

Row | SMILES | inhibition [1] | mortality [2] [%] | inhibition [3]
1 | CC(C)[C@H]1CC[C@H](C)CC1=O (relative stereo) | inactive | – | –
2 | CC(C)=C1CC[C@@H](C)CC1=O [PULEGONE] | – | 100 | Active
3 | CC(C)[C@H]1CC[C@@H](C)CC1=O (relative stereo) | inactive | – | –
